Like-named read-outs stand apart in the source and are kept apart here.
Experiments:
[1] = test system: microglia in hippocampal slice cultures; type: cell-based, rat
[2] = test system: SD in neocortex and hippocampus of anesthetized rat; assay: SD threshold in vivo (0.5 M KCl injection) after nasal administration; conditions: a day after nasal treatment (IGF-1 150 μg; IL-11 1 μg; IFN-γ 50,000 units); control 1-8 nL
Protocol: Images show experimental setups for nasal administration and testing. (FIG. 7A) Nasal injection setup showing heat lamp and thermo-regulator that maintains temperature at 37° C. plus nose cone used to deliver isoflurane anesthesia. (FIG. 7B) Operator is shown administering nasal IGF-1 solution, which is performed in a fume hood to adequately vent isoflurane from nose cone. (FIG. 7C) Image illustrates standard electrophysiology setup. Anesthetized animal is placed into a standard electrophysiology holder and anesthesia maintained by a nose cone delivering 3% isoflurane in oxygen. Arterial oxygen saturation is monitored with a pulse-oximeter. Animals are warmed to 37.5° C. with a heating plate. SD is induced by progressively injecting larger volumes of 0.5 M KCl from an 8 μm diameter microelectrode. SD is registered with a second microelectrode used for DC recordings placed more caudally. After SD is evoked by a given injection pulse, the stimulating electrode is withdrawn and a volume re-injected under mineral oil. The diameter of the resultant KCl injection sphere is then measured off line using a compound microscope and the injection volume calculated. For example, in the above whole animal experiments it took 1-8 nL of 0.5 M KCl to evoke SD in control brain regions while after acute IGF-1 this amount rose to 67-109 nL. A day after IGF-1 treatment the volume needed to evoked SD was 34-48 nL. IFN-γ treatment required 338 nL of 0.5 M KCl a day after treatment and IL-11 required 67-200 nL.
Rats (FIGS. 6 and 7) are anesthetized with inhalational isoflurane and kept warm. While anesthetized, animals are placed in a supine position and 50 μL of sterile drug (i.e., IFN-γ, IGF-1, or IL-11) solution [or sterile saline vehicle (sham control)] is administered nasally by delivering 5 μL alternating between the left and right naris every 2 min over 20 minutes. Animals are given nasal drug treatments daily at the same time for 7 days before subsequent experiments. Doses for all 3 agents begin with the effective doses noted in our work using slice cultures (1×), then include others (0.1× and 10×). The inventors base this strategy on the fact that the effective culture dose for IGF-1 (40 ng/mL) closely approximates the dose used in vivo (143 μg/kg).
This approach was applied to measurement of SD threshold (FIG. 10) after treatment (FIG. 7) with nasally administered IGF-1 (150 μg), IL-11 (1 μg), IFN-γ (50,000 units), and insulin (20 μg). […] Resistance against SD was always greater in hippocampus compared to neocortex (n=4, controls; n=3, acutely after IGF-1; n=6, one day after IGF-1; n=6, one day after IL-11; n=6, one day after IFN-γ; and n=3, acutely after insulin).
Nasal administration followed by SD threshold evaluation in vivo. Vehicle or human recombinant IGF-1 (150 μg) is administered intranasally. SD threshold is established by injection of nanoliter volumes of 0.5 M KCl into neocortex or hippocampus (−2.0 mm from Bregma and 1.5 mm lateral from midline at either 750 μm or 2,800 μm into brain, respectively) using a thin-walled glass pipette and Picospritzer. Once a threshold is established, it is confirmed two more times, with an exemplary record from a vehicle-sham animal shown below. […] The diameter of the injected sphere is then measured using a compound microscope and used to calculate the injected volume, then moles of potassium. […]

[3] = test system: OS from cLTP in hippocampal slice cultures; assay: OS / reactive oxygen species generated from chemical long-term potentiation (cLTP) in slice cultures; type: cell-based, rat; conditions: 3 days treatment (IFN-γ 500 U/mL; IL-11; IGF-1), compared to shams
Protocol: This beneficial effect of low-level IFN-γ is supported by results from rats. In rats, enrichment, which occurs with hippocampal learning, led to a significant elevation in hippocampal T-cells, IFN-γ and MBP.
Experiments were performed in rat hippocampal slices cultures and SD induced as previously described (Pusic et al., 2011). Results were derived from n≥3-6/group. […] This is consistent with the neural activity increase seen after SD, which mimics the hyperexcitability evident in migraine patients.
This prompted the inventors to examine whether insulin could reduce SD susceptibility by increasing CA3 pyramidal neuron bursting. The inventors induced SD trans-synaptically in rat HSC using electrical stimuli (100 μs pulses @ 10 Hz for 1 s) ranging from 1 to 10,000 nC in order to determine SD threshold in sham and experimental groups (Pusic et al., 2011). Results were based on n≥3-6/group. […] This insulin dose approximates the pharmacological levels seen in humans treated with nasal insulin. […] The inventors hypothesized that the effect of insulin occurred through IGF-1 receptor cross-talk.
The inventors use a well-accepted method for inducing cLTP in slice cultures (Kraig et al., 2010; Otmakhov et al., 2004a; Otmakhov et al., 2004b; Kopec et al., 2006). The protocol consists of raising cAMP levels and increasing synaptic activity using rolipram/forskolin applied in a Mg^2+-free Ringer's solution (36° C.) for 5 min, then allowing slices to recover in normal media.

Question: How did the “number of microglia moving long distances” value [1] turn out when `NC1=N[C@H](O)[C@H]2[C@H]3O[C@]4(O)O[C@@H]([C@@H](O)[C@@]2(N1)[C@@H]4O)[C@]3(O)CO` [TTX, tetrodotoxin] was run?
Answer: Its value is “significantly increased the number of microglia moving long distances”.

Question: lipopolyssacharide [LPS] was tested. Which “number of microglia moving long distances” value ([1]; slice cultures, vital imaging) did it give?
Answer: Its value is “significantly decreased the number of microglia moving long distances”.

B1: Interleukin 11 (protein, listed as Homo sapiens)
chain: MNCVCRLVLVVLSLWPDTAVAPGPPPGPPRVSPDPRAELDSTVLLTRSLLADTRQLAAQLRDKFPADGDHNLDSLPTLAMSAGALGALQLPGVLTRLRADLLSYLRHVQWLRRAGGSSLKTLEPELGTLQARLDRLLRRLQLLMSRLALPQPPPDPPAPPLAPPSSAWGGIRAAHAILGGLHLTLDWAVRGLLLLKTRL
Question: With B1 as the molecule, how does the “volume of 0.5 M KCl needed to evoke SD” value [2] read?
Answer: The value was 67 to 200 nL.

Question: What about the “OS / reactive oxygen species generated from cLTP” value [3] of the same molecule?
Answer: Its value is “significantly reduced OS”.
